pEC50, pIC50: −log10 of the molar value.
What was measured:
[1] = biological target: T1, PTK2 (Homo sapiens, UniProt Q05397); assay: PTK2 Enzyme Test (DELFIA assay, poly-Glu-Tyr substrate); type: biochemical; details: active PTK2 enzyme, 50 μM ATP in ATP Mix, 1 h pre-incubation
T1 construct: purchased Invitrogen PV3832
Protocol: This test uses active PTK2 enzyme (Invitrogen Code PV3832) and poly-Glu-Tyr (4:1, Sigma P-0275) as the kinase substrate. The kinase activity is detected by means of the phosphorylation of the substrate in a DELFIA™ assay. The phosphorylated substrate is detected with the Europium-labelled phosphotyrosine antibody PY20 (Perkin Elmer, No.: AD0038).
In order to determine concentration-activity curves with PTK2-inhibitors the compounds are serially diluted in 10% DMSO/H2O and 10 μL of each dilution are dispensed per well in a 96-well microtitre plate (clear U-shaped base plate, Greiner No. 650101) (the inhibitors are tested in duplicates) and mixed with 10 μL/well of PTK2 kinase (0.01 μg/well). PTK2 kinase is diluted accordingly beforehand with kinase dilution buffer (20 mM TRIS/HCl pH 7.5, 0.1 mM EDTA, 0.1 mM EGTA, 0.286 mM sodium orthovanadate, 10% glycerol with the addition of freshly prepared BSA (fraction V 1 mg/mL) and DTT (1 mM)). The test compound and the PTK2 kinase are pre-incubated for 1 h at RT and shaken at 500 rpm. Then 20 μL ATP Mix (30 mM TRIS/HCl pH 7.5, 0.02% Brij, 0.2 mM sodium orthovanadate, 10 mM magnesium acetate, 0.1 mM EGTA, 1× Phosphatase Inhibitor Cocktail 1 (Sigma, No.: P2850), 50 μM ATP (Sigma, No.: A3377; 15 mM stock solution)) are added. The reaction is started by the addition of 10 μL/well of poly (Glu,Tyr) substrate (25 μg/well poly (Glu,Tyr), 0.05 μg/well biotinylated poly (Glu,Tyr) dissolved in 250 mM TRIS/HCl pH 7.5, 9 mM DTT)—the final concentration of DMSO is 2%. After 1 h kinase reaction (the plates are shaken at 500 rpm), the reaction is stopped by the addition of 12 μL/well of 100 mM EDTA, pH 8. And shaken for a further 5 min at RT (500 U/min).
55 μL of the reaction mixture are transferred into a streptavidin plate (Strepta Well High Bind (transparent, 96-well) made by Roche, No.: 11989685001) and incubated for 1 h at RT (shaking at 500 rpm). Then the microtitre plate is washed three times with 200 μL/well D-PBS (Invitrogen, No.:14190). 100 μL of 1:2000 diluted DELFIA Eu-N1 Anti-Phosphotyrosine PY20 antibody (Perkin Elmer, No.: AD0038, 1:2000 diluted in DELFIA test buffer (Perkin Elmer, No.: 1244-111)) is then added and it is incubated for 1 h at RT (shaking at 500 rpm). Then the plate is washed three times with 200 μL/well DELFIA washing buffer (Perkin Elmer, No.: 1244-114), 200 μL/well strengthening solution (Perkin Elmer, No.: 1244-105) is added and the whole is incubated for 10 min at RT (shaking at 300 rpm).
The time-delayed europium fluorescence is then measured in a microtitre plate reader (Victor, Perkin Elmer). The positive control consists of wells that contain solvent (2% DMSO in test buffer) and display uninhibited kinase activity. Wells that contain test buffer instead of enzyme act as a control for the background kinase activity.
The IC50 values are determined from concentration-activity analyses by iterative calculation using a sigmoidal curve analysis algorithm (FIFTY, based on GraphPAD Prism Version 3.03) with a variable Hill coefficient.

[2] = biological target: T2, PTK2-phosphorylation at tyrosine 397 (pY397) (Homo sapiens, UniProt Q05397); assay: Phospho-PTK2 (pY397) Assay in PC-3 cells; type: cell-based; details: PC-3 prostate carcinoma cells, 2 h incubation; read-out: PC3pPTK2 Y397 EC50
T2 construct: endogenous in cells; host or cells: PC-3 (ATCC CRL-1435)
Protocol: This cellular test is used to determine the influence of PTK2-inhibitors on the state of the PTK2-phosphorylation at tyrosine 397 (pY397).
PC-3 cells (prostate carcinoma, ATCC CRL-1435) are grown in cell culture flasks (175 cm^2) with F12 Kaighn's Medium (Gibco, No.: 21127) with the addition of 10% foetal calf serum (Invitrogen, No.: 16000-044). The cultures are incubated in the incubator at 37° C. and 5% CO2 and run twice a week.
For the test, 2×10^4 cells pro well/[…] are plated out in 96-well microtitre plates (Costar, No.: 3598) and incubated overnight in the incubator at 37° C. and 5% CO2. The test compounds (10 μL from serial dilution) are added the next day. The concentration of the test compounds usually covers a range of 50 μM and 0.8 nM. The test compounds (stock solution: 10 mM in 100% DMSO) are diluted in medium/medium 10% DMSO such that the final concentration is 1% DMSO. The cells are then incubated in the incubator at 37° C. and 5% CO2 for 2 h. Then the culture supernatant is removed and the cells are fixed with 150 μL 4% formaldehyde in D-PBS for 20 min at RT. The cell lawn is washed five times with 200 μL 0.1% Triton X-100 in D-PBS for 5 min in each case and then incubated for 90 min with blocking buffer (5% skimmed milk powder (Maresi Fixmilch) in TBST (25 mM Tris/HCl, pH 8.0, 150 mM NaCl, 0.05% Tween 20). The blocking buffer is replaced by 50 μL of the first antibody anti-phospho PTK2 [pY397] rabbit monoclonal (Invitrogen/Biosource, No.: 44-625G), which is diluted 1:200 in blocking buffer. For control purposes, alternatively a PTK2 [total] antibody (clone 4.47 mouse monoclonal, Upstate, No.: 05-537), diluted 1:400 in blocking buffer is used. This incubation is carried out at 4° C. overnight. Then the cell lawn is washed five times with 100 μL of 0.1% Tween in D-PBS for 5 min in each case and 50 μL/well of second antibody are added. In order to detect bound phospho-PTK2 [pY397] antibody a goat-anti-rabbit antibody is used which is coupled with horseradish peroxidase (Dako, No.: P0448; 1:500 dilution in blocking buffer). In order to detect bound PTK2 [total]-antibodies a rabbit-anti-mouse antibody is used, which is also coupled with horseradish peroxidase (Dako, No.: PO161; 1:1000 dilution in blocking buffer). This incubation is carried out for 1 h at RT with gentle shaking. The cell lawn is then again washed five times with 100 μL of 0.1% Tween in D-PBS for 5 min in each case. […] The EC50 values are determined from concentration-activity analyses by iterative calculation with the aid of a sigmoidal curve analysis algorithm (FIFTY, based on GraphPAD Prism Version 3.03) with a variable Hill coefficient.

T1 sequence (Q05397 whole entry): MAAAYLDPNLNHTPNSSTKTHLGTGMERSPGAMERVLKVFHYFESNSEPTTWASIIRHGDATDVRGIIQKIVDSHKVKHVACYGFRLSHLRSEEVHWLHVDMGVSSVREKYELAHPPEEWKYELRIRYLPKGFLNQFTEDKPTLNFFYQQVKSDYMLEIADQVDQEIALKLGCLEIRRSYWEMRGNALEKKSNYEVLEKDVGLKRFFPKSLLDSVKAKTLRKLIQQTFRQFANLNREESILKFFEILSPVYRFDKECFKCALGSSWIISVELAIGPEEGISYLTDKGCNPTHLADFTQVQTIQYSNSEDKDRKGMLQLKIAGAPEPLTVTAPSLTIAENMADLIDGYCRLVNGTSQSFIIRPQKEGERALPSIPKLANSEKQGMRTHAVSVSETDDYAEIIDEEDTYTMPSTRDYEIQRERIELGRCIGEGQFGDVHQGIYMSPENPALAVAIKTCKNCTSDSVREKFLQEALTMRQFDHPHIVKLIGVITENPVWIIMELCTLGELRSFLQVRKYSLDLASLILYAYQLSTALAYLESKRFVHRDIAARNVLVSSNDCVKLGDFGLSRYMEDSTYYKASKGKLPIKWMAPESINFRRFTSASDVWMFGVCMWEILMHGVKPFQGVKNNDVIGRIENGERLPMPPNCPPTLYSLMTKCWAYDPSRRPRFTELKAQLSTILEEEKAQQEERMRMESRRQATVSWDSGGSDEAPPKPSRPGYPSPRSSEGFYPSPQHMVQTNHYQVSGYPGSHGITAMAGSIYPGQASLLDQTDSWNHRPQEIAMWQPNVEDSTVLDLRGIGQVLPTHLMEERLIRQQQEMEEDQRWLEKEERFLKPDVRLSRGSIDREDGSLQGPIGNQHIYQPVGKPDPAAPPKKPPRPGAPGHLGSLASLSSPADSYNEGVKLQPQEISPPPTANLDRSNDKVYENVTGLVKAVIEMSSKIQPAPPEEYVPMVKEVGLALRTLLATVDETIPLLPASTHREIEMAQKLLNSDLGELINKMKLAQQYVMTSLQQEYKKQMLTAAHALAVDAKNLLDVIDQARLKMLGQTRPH
T2 sequence (Q05397 whole entry): as above

SMILES | pIC50 [1] | pEC50 [2]
COc1ccc(CNc2nc(Nc3cc(F)c(C(=O)NC(C)(C)C)cc3OC)ncc2C(F)(F)F)c(N(C)S(C)(=O)=O)c1 [Example 128] | 7.66 | 
COc1ccc(CNc2nc(Nc3ccc(NC(C)=O)c(OC)c3)ncc2C(F)(F)F)c(N(C)S(C)(=O)=O)c1 [Example 87] | 9.00 | 9.00
COc1cc(C(=O)NC2CCN(C)CC2)c(F)cc1Nc1ncc(C(F)(F)F)c(NCc2ccc(C)cc2N(C)S(C)(=O)=O)n1 [Example 43] | 8.70 | 9.40
COc1cc(C(=O)N[C@H]2CCCN(C3CCOCC3)C2)ccc1Nc1ncc(C(F)(F)F)c(NCc2ccc(C)cc2N(C)S(C)(=O)=O)n1 [Example 53] | 8.30 | 9.27
CCN1CCC[C@@H](NC(=O)c2ccc(Nc3ncc(C(F)(F)F)c(NCc4ccc(C)cc4N(C)S(C)(=O)=O)n3)c(OC)c2)C1 [Example 17] | 8.70 | 9.72
COc1cc(C(=O)N[C@@H]2CCN(C)C[C@@H]2F)ccc1Nc1ncc(C(F)(F)F)c(NCc2ccc(C)cc2N(C)S(C)(=O)=O)n1 [Example 106] | 8.40 | 8.70
COc1cc(C(=O)N(C)C)c(C)cc1Nc1ncc(C(F)(F)F)c(NCc2ccc(C)cc2N(C)S(C)(=O)=O)n1 [Example 123] | 8.05 | 8.52
COc1cc(CNCc2ccccc2)ccc1Nc1ncc(C(F)(F)F)c(NCc2ccc(C)cc2N(C)S(C)(=O)=O)n1 [Example 67] | 8.15 | 9.15
COc1cc(C(=O)NC2CCC(NS(C)(=O)=O)CC2)ccc1Nc1ncc(C(F)(F)F)c(NCc2ccc(C)cc2N(C)S(C)(=O)=O)n1 (centres unmarked) [Example 27] | 8.40 | 9.57
COC(=O)Nc1cc(OC)c(Nc2ncc(C(F)(F)F)c(NCc3ccc(OC)cc3N(C)S(C)(=O)=O)n2)cc1C [Example 125] | 8.30 | 8.52
COc1ccc(CNc2nc(Nc3ccc(C(=O)N[C@H]4CC[C@H](N5CCOCC5)CC4)cc3OC)ncc2C(F)(F)F)c(N(C)S(C)(=O)=O)c1 [Example 57] | 8.70 | 9.24
CCN1CCC(NC(=O)c2cc(OC)c(Nc3ncc(C(F)(F)F)c(NCc4ccc(C)cc4N(C)S(C)(=O)=O)n3)cc2F)CC1 [Example 1] | 8.70 | 10.30
COc1ccc(CNc2nc(Nc3ccc(NC(C)=O)c(Cl)c3)ncc2C(F)(F)F)c(N(C)S(C)(=O)=O)c1 [Example 105] | 8.70 | 8.70
COc1cc(C(=O)NCCn2ccnc2)ccc1Nc1ncc(C(F)(F)F)c(NCc2ccc(C)cc2N(C)S(C)(=O)=O)n1 [Example 13] | 8.70 | 9.80
CCN1CCC(NC(=O)c2ccc(Nc3ncc(C(F)(F)F)c(NCc4ccc(C)cc4N(C)S(C)(=O)=O)n3)c(OC)c2)CC1 [Example 8] | 8.70 | 9.85
Cc1ccc(CNc2nc(Nc3cc(F)c(N4CCNCC4)cc3F)ncc2C(F)(F)F)c(N(C)S(C)(=O)=O)c1 [Example 129] | 9.00 | 

SMILES | pIC50 [1] | pEC50 [2]
CNC(=O)c1cc(OC)c(Nc2ncc(C(F)(F)F)c(NCc3ccc(OC)cc3N(C)S(C)(=O)=O)n2)cc1F [Example 127] | 8.40 | 
CC(=O)Nc1ccc(Nc2ncc(C(F)(F)F)c(NCc3ccc(C)cc3N(C)S(C)(=O)=O)n2)cc1C [Example 117] | 9.07 | 8.52
COc1cc(CNC2CCCCC2)ccc1Nc1ncc(C(F)(F)F)c(NCc2ccc(C)cc2N(C)S(C)(=O)=O)n1 [Example 109] | 8.70 | 8.70
COc1cc(C(=O)N[C@H]2CCN(C)C2)c(Cl)cc1Nc1ncc(C(F)(F)F)c(NCc2ccc(C)cc2N(C)S(C)(=O)=O)n1 [Example 120] | 8.52 | 8.52
COc1cc(C(=O)NC2CCN(C(C)=O)CC2)ccc1Nc1ncc(C(F)(F)F)c(NCc2ccc(C)cc2N(C)S(C)(=O)=O)n1 [Example 9] | 8.22 | 9.85
CNC(=O)c1ccc(Nc2ncc(C(F)(F)F)c(NCc3ccc(C)cc3N(C)S(C)(=O)=O)n2)c(OC)c1 [Example 69] | 9.00 | 9.13
CNC(=O)c1cc(OC)c(Nc2ncc(C(F)(F)F)c(NCc3ccc(C)cc3N(C)S(C)(=O)=O)n2)cc1C [Example 54] | 8.52 | 9.26
COc1cc(C(=O)NC2CCCN(C)C2)ccc1Nc1ncc(C(F)(F)F)c(NCc2ccc(C)cc2N(C)S(C)(=O)=O)n1 (centres unmarked) [Example 7] | 8.52 | 9.85
COc1cc(C(=O)NCCN(C)C)ccc1Nc1ncc(C(F)(F)F)c(NCc2ccc(C)cc2N(C)S(C)(=O)=O)n1 [Example 4] | 9.00 | 9.96
COc1cc(C(=O)NC[C@@H](C)N2CCCC2)ccc1Nc1ncc(C(F)(F)F)c(NCc2ccc(C)cc2N(C)S(C)(=O)=O)n1 [Example 6] | 8.52 | 9.89
COc1cc(C(=O)NC2CCN(C)CC2)c(Cl)cc1Nc1ncc(C(F)(F)F)c(NCc2ccc(C)cc2N(C)S(C)(=O)=O)n1 [Example 78] | 8.40 | 9.03
COc1cc(C(=O)N[C@@H]2CN3CCC2CC3)ccc1Nc1ncc(C(F)(F)F)c(NCc2ccc(C)cc2N(C)S(C)(=O)=O)n1 [Example 74] | 8.52 | 9.10
COc1cc(C(=O)N[C@@H]2CCN(C)C[C@H]2F)ccc1Nc1ncc(C(F)(F)F)c(NCc2ccc(C)cc2N(C)S(C)(=O)=O)n1 [Example 131] | 8.40 | 
CCc1cc(C(=O)NC2CCOCC2)ccc1Nc1ncc(C(F)(F)F)c(NCc2ccc(C)cc2N(C)S(C)(=O)=O)n1 [Example 132] | 8.40 | 
CNC(=O)c1ccc(Nc2ncc(C(F)(F)F)c(NCc3ccc(C)cc3N(C)S(C)(=O)=O)n2)c(C)c1 [Example 130] | 9.00 | 

From patent publication US8377943B2, “2,4-diaminopyrimidine derivates as PTK2-inhibitors for the treatment of abnormal cell growth” (Boehringer Ingelheim International GmbH, priority 2008, dated 2013)
